Measurements as given in the kinase profiling compilation of Christmann-Franck et al. (2016).

Key:
Assay in all cases: KINOMEscan competition binding
Details in all cases: compound 1.0 µM
[1] = target: ABL2 (human) (UniProt P42684)
[2] = target: AURKC (human) (UniProt Q9UQB9)
[3] = target: BMPR2 (human) (UniProt Q13873)
[4] = target: BRSK2 (human) (UniProt Q8IWQ3)
[5] = target: BTK (human) (UniProt Q06187)
[6] = target: CAMK2A (human) (UniProt Q9UQM7)
[7] = target: CAMK2D (human) (UniProt Q13557)
[8] = target: CAMK4 (human) (UniProt Q16566)
[9] = target: CDKL3 (human) (UniProt Q8IVW4)
[10] = target: CSNK1A1L (human) (UniProt Q8N752)
Sequence of CSNK1A1L (human) (Q8N752 whole entry, looked up): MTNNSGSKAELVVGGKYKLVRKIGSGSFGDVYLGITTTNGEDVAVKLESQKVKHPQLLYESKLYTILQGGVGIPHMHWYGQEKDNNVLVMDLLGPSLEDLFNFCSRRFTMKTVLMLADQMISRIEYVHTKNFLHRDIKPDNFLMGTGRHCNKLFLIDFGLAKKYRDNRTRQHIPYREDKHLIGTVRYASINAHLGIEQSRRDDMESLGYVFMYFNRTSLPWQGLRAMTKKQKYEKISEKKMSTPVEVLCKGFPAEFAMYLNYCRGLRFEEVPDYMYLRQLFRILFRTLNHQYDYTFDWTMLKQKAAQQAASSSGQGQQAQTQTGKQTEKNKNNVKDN

[11] = target: FES (human) (UniProt P07332)
[12] = target: FGFR1 (human) (UniProt P11362)
[13] = system: FLT3 (human), P36888 [K663Q]
[14] = target: IKBKE (human) (UniProt Q14164)
[15] = target: IRAK3 (human) (UniProt Q9Y616)
[16] = system: KIT (human), P10721 [V559D]
Sequence of KIT (human), P10721 [V559D] (P10721 whole entry V559D, looked up): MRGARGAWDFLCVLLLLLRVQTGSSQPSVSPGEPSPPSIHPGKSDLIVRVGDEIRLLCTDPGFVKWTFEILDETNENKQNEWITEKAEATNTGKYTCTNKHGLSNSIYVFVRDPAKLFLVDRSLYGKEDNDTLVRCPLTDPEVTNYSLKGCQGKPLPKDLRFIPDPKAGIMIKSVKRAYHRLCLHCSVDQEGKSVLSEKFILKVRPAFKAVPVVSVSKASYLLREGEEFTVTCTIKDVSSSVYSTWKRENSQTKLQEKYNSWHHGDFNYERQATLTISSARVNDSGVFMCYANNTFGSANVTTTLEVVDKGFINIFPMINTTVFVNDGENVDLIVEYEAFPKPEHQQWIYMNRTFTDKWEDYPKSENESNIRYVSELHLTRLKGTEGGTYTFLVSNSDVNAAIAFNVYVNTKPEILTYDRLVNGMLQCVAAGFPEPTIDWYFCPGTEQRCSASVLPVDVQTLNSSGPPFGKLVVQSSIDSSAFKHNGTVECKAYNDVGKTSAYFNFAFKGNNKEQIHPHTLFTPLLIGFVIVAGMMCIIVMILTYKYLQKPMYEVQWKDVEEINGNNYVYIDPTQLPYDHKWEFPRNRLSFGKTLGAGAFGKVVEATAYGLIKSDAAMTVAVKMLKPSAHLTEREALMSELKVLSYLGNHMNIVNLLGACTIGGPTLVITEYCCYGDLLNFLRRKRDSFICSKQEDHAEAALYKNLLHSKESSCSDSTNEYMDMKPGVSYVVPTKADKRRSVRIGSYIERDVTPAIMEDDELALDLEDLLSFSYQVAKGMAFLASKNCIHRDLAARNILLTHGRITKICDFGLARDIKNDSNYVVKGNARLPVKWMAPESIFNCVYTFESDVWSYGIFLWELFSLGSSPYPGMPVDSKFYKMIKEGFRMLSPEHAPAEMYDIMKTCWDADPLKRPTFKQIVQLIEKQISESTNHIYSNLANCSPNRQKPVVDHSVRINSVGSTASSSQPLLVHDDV

[17] = target: LYN (human) (UniProt P07948)
[18] = target: MAP2K3 (human) (UniProt P46734)
[19] = target: MAP3K6 (human) (UniProt O95382)
[20] = target: MAPK14 (human) (UniProt Q16539)
[21] = target: MATK (human) (UniProt P42679)
[22] = target: MST1R (human) (UniProt Q04912)
[23] = target: NEK1 (human) (UniProt Q96PY6)
Sequence of NEK1 (human) (Q96PY6 whole entry, looked up): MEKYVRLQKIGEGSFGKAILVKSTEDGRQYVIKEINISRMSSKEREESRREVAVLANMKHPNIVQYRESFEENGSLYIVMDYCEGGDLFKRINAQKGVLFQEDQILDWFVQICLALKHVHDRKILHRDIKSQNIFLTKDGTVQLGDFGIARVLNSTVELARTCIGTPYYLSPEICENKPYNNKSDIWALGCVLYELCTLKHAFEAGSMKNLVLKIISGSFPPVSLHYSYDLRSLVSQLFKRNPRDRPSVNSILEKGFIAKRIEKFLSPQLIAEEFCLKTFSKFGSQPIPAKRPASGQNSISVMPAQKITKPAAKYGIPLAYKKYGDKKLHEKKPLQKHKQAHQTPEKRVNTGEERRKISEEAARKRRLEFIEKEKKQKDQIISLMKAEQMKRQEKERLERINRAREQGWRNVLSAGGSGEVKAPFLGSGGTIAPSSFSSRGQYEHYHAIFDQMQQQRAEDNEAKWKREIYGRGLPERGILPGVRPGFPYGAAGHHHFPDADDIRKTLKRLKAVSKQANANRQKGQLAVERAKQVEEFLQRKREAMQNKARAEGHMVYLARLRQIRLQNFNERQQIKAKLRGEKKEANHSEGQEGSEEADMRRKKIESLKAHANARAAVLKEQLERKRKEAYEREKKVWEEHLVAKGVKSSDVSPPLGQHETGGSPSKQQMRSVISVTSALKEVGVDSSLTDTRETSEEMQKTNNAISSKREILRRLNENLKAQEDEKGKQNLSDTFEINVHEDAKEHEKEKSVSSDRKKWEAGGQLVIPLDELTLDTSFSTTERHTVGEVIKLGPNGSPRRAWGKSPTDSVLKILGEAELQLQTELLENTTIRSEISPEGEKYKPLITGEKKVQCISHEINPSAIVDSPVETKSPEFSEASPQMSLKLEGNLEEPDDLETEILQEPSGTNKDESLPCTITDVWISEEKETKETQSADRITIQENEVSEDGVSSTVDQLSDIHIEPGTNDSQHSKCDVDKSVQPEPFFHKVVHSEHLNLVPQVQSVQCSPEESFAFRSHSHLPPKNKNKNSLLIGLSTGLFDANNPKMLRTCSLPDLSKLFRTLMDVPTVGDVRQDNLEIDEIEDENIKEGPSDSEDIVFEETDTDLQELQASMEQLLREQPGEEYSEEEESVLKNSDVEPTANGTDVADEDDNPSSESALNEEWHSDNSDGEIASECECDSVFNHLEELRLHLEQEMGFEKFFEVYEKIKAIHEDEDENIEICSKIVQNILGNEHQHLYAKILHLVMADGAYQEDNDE

[24] = target: NUAK1 (human) (UniProt O60285)
[25] = target: PDGFRA (human) (UniProt P16234)
[26] = target: PIK3CD (human) (UniProt O00329)
[27] = target: PIM2 (human) (UniProt Q9P1W9)
[28] = target: PRKCE (human) (UniProt Q02156)
Sequence of PRKCE (human) (Q02156 whole entry, looked up): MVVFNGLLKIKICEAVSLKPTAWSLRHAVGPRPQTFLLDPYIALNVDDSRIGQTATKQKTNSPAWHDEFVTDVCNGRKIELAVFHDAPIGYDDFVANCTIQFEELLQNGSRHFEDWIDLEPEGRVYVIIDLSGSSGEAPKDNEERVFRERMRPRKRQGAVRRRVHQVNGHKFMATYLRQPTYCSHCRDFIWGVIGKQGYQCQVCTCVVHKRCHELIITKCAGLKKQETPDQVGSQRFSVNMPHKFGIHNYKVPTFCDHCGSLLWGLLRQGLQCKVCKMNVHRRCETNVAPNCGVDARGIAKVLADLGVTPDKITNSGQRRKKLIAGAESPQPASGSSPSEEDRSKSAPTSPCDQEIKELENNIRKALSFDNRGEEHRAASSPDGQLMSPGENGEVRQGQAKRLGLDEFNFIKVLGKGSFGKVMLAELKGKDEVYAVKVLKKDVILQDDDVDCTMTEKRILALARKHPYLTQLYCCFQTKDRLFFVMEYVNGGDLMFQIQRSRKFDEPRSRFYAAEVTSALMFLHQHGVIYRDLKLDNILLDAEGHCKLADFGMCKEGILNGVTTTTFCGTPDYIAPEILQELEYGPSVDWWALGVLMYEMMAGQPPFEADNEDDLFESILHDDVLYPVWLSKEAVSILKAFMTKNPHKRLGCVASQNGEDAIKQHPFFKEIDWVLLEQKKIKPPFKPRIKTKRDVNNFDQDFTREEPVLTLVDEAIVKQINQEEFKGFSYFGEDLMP

[29] = system: RET (human), P07949 [M918T]
[30] = target: RIPK4 (human) (UniProt P57078)
[31] = target: RPS6KA1 KD1 (human) (UniProt Q15418)
[32] = target: SGK110 (human) (UniProt P0C264)
[33] = target: SIK1 (human) (UniProt P57059)
Sequence of SIK1 (human) (P57059 whole entry, looked up): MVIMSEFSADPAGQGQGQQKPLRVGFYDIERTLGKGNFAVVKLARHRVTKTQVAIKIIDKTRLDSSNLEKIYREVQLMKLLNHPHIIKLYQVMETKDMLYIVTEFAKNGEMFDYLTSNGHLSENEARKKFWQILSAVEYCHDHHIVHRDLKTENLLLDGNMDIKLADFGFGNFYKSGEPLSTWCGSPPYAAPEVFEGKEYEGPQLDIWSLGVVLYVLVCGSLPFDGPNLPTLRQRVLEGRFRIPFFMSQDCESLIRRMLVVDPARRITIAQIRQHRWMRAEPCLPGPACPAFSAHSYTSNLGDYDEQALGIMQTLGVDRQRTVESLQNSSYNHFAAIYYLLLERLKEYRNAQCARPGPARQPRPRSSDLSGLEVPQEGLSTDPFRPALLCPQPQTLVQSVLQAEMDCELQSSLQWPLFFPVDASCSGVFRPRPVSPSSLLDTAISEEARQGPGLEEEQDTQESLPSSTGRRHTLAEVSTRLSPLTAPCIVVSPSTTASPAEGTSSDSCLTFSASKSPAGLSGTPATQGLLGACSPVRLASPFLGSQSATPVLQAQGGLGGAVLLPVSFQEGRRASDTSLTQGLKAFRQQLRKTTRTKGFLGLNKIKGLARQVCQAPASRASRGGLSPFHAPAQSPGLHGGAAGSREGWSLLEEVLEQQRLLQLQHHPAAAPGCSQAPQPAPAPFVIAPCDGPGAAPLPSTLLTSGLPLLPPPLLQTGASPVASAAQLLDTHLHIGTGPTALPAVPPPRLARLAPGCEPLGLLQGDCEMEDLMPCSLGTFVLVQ

[34] = target: SRMS (human) (UniProt Q9H3Y6)
[35] = target: STK38 (human) (UniProt Q15208)
[36] = target: STK38L (human) (UniProt Q9Y2H1)
[37] = target: TAOK1 (human) (UniProt Q7L7X3)
[38] = target: TAOK2 (human) (UniProt Q9UL54)
[39] = target: WNK1 (human) (UniProt Q9H4A3)

Sequence of BRSK2 (human) (Q8IWQ3 whole entry, looked up): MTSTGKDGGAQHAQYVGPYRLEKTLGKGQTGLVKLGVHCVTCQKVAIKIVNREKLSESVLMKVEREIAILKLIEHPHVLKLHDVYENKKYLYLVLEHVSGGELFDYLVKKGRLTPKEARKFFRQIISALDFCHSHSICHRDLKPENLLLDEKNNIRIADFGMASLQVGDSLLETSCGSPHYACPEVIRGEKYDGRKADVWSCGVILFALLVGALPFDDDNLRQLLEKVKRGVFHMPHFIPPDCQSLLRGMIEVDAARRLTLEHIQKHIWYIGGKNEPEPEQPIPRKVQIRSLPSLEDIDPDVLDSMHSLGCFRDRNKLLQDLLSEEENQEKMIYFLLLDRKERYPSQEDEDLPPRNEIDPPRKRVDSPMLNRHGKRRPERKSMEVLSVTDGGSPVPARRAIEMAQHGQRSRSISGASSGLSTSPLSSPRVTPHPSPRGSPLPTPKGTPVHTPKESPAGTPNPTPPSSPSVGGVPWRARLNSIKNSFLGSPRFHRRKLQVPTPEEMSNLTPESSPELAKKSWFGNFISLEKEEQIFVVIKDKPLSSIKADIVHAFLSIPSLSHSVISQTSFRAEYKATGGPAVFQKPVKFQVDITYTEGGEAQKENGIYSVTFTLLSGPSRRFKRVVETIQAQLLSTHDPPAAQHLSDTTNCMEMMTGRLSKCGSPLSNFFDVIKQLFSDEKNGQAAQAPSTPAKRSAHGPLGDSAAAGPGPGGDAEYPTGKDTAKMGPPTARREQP

SMILES: CNc1nc(Nc2ccc(C(=O)N3CCOCC3)cc2OC)ncc1Cl
- kinase still bound, per cent of control [1]: 100%
- kinase still bound, per cent of control [2]: 88%
- kinase still bound, per cent of control [3]: 85%
- kinase still bound, per cent of control [4]: 51%
- kinase still bound, per cent of control [5]: 100%
- kinase still bound, per cent of control [6]: 76%
- kinase still bound, per cent of control [7]: 87%
- kinase still bound, per cent of control [8]: 100%
- residual activity [9]: 100%
- kinase still bound, per cent of control [10]: 94%
- kinase still bound, per cent of control [11]: 100%
- kinase still bound, per cent of control [12]: 55%
- kinase still bound, per cent of control [13]: 53%
- kinase still bound, per cent of control [14]: 86%
- kinase still bound, per cent of control [15]: 88%
- kinase still bound, per cent of control [16]: 18%
- kinase still bound, per cent of control [17]: 100%
- kinase still bound, per cent of control [18]: 93%
- kinase still bound, per cent of control [19]: 100%
- kinase still bound, per cent of control [20]: 100%
- kinase still bound, per cent of control [21]: 100%
- kinase still bound, per cent of control [22]: 100%
- kinase still bound, per cent of control [23]: 91%
- kinase still bound, per cent of control [24]: 82%
- kinase still bound, per cent of control [25]: 87%
- kinase still bound, per cent of control [26]: 69%
- kinase still bound, per cent of control [27]: 100%
- kinase still bound, per cent of control [28]: 86%
- kinase still bound, per cent of control [29]: 100%
- kinase still bound, per cent of control [30]: 100%
- kinase still bound, per cent of control [31]: 100%
- kinase still bound, per cent of control [32]: 100%
- kinase still bound, per cent of control [33]: 100%
- kinase still bound, per cent of control [34]: 100%
- kinase still bound, per cent of control [35]: 100%
- kinase still bound, per cent of control [36]: 86%
- kinase still bound, per cent of control [37]: 99%
- kinase still bound, per cent of control [38]: 88%
- kinase still bound, per cent of control [39]: 100%
